Structures can show the parent of a compound that is named as a salt. Where two headings read alike, the source gives them in different places. Values belong to the molecule of their own block, whether it stands above or below them.
How the values were obtained:
[1] = for Pi binding (FIG. 1): 24 hours; for Observed in vitro Pi Binding, %: inventor's experiments, mean of triplicate determinations
Description: The pH of each solution was adjusted to the desired value by the addition of concentrated hydrochloric acid or sodium hydroxide, as appropriate.
An HPLC method with conductivity detection was developed and validated for use in the determination of succinate, acetate and phosphate. The separation was performed on a Dionex AS11 […] HPLC column integrated with an Agilent Series 1100 HPLC system, and detection of the anionic species was enabled using a Dionex ED50 Electrochemical Detector, operating in Conductivity Mode. Limits of Detection and Quantitation were enhanced through the use of a Dionex Anion Self-Regenerating Suppressor. After assay-specific development and verification of assay performance were completed, the analysis of phosphate and succinate or acetate was performed by sampling the test solution and diluting it, if necessary, to a concentration within the linear range of the Assay. The sample was then injected onto the HPLC column and eluted with a sodium hydroxide gradient. Data were acquired using Agilent ChemStation® software.
Experimental Methods: Experiments were completed in triplicate in which 2.77 g of Na2HPO4.7 H2O (equivalent to 320 mg of elemental phosphorus) was dissolved in 570 mL of deionized water. The test or control binder was dissolved in deionized water to a volume of 30 mL. The binder solution was added to the phosphorus solution to give a final volume of 600 mL. For each binder study, the phosphorus solutions were titrated by addition of dilute HCl or dilute NaOH to five different initial pH levels: 4, 5, 6, 7, and 8. (These solution pH's span the pH range of the gastrointestinal tract.) Then the beakers containing the solutions were covered with plastic wrap and placed on a stir plate that agitated the solution at ˜20 cycles per minute overnight. This stirring rate has been selected because in vitro antacid activity at such low stirring rates has been reported to correlate well with in vivo antacid activity in the stomach. Samples for ion chromatographic assay of solution phosphate (Pi) were taken at 24 hours post-mixing (the maximum time available for phosphorus binding that has been reported in related in vivo studies). The decrease in phosphorus concentration from the original concentration in the phosphorus solution to that of the filtrate represents the bound phosphorus.

[2] = Sheikh et al. 1989, cited from earlier work
[3] = healthy human subjects, anticipated
Description: Net calcium absorption will be measured by a validated method, such as the one described in detail by Bo-Linn, G. W. et al., Journal of Clinical Investigation, 73: 640-647 (1984). The procedure that will be followed is described below.
On each day, subjects will be prepared by a mannitol-electrolyte gastrointestinal lavage, in order to cleanse the gastrointestinal tract. […] Then each subject will eat a test meal of 80 g ground sirloin steak, 100 g French fried potatoes, 30 g Swiss cheese and 250 mL water containing 10 g of polyethylene glycol (PEG3500) as a non-absorbable marker. After the meal, each subject will consume 25 mEq of calcium, in the same form as will have been consumed prior to the meal, or additional placebo, with 100 mL of water. Duplicate meals will be prepared (one for consumption and one to be analyzed for calcium and phosphorus). The duplicate meals will be analyzed for calcium and phosphorus and are expected to contain about 350 mg of phosphorus and about 215 mg of calcium. […]
Ten hours after a meal, a second lavage will be begun, using the procedure described above. […] All urine voided during the 10-hour period will be collected and analyzed for phosphorus and calcium. Rectal effluent will be collected, pooled with any stool passed during the 10-hour period and analyzed for phosphorus and calcium. Absorption will be calculated according to the following equation: […]

Molecule: CC(=O)[O-].CC(=O)[O-].[Ca+2] [Calcium Acetate, calcium acetate]
- Pi binding (FIG. 1) ([1]; pH 4): 100%
- Observed in vitro Pi Binding, % ([1]; pH 4.0): 58.6%
- Pi binding (FIG. 1) ([1]; pH 5): 92%
- Pi binding (FIG. 1) ([1]; pH 6): 100%
- Observed in vitro Pi Binding, % ([1]; pH 6.0): 93.8%
- Pi binding (FIG. 1) ([1]; pH 7): 100%
- Pi binding (FIG. 1) ([1]; pH 8): 100%

Molecule: O=C([O-])[O-].[Ca+2] [Calcium Carbonate, calcium carbonate]
- Observed in vitro Pi Binding, % ([2]; pH 6.0): 90%

Molecule: O=C([O-])CC(O)(CC(=O)[O-])C(=O)[O-].O=C([O-])CC(O)(CC(=O)[O-])C(=O)[O-].[Ca+2].[Ca+2].[Ca+2] [Calcium Citrate, calcium citrate]
- Observed in vitro Pi Binding, % ([2]; pH 6.0): 10%
- Observed in vitro Pi Binding, % ([2]; pH 6.5): 20% at pH 6.5 (NOTE 2)

Molecule: CC(O)C(=O)[O-].CC(O)C(=O)[O-].[Ca+2] (centres unmarked) [Calcium Lactate, calcium lactate]
- Observed in vitro Pi Binding, % ([2]; pH 6.0): 90%

- Pi binding compared with calcium acetate (FIG. 1) ([1]; each pH value in the range from pH 4 to 8): matches or exceeds
- Observed in vitro Pi Binding, % ([1]; pH 4.0): 59.4%
- Observed in vitro Pi Binding, % ([1]; pH 6.0): 94.0%
Molecule: O=C(O)CCC(=O)O [Calcium Succinate, butanedioic acid calcium salt]
- dietary phosphorus absorbed from the GI tract ([3]; ingested close in time to test meal): about 20%
- change in the percentage of dietary calcium absorbed from the GI tract ([3]; versus placebo day): less than 10%

Molecule: calcium gluconate
- Observed in vitro Pi Binding, % ([2]; pH 6.0): 90%

From patent US20110269837A1, “PHOSPHORUS BINDER COMPOSITION FOR TREATMENT OF HYPERPHOSPHATEMIA” (BIOLINK LIFE SCIENCES, INC., priority 2010, published 2011)
